Assay results as given in ChEMBL document CHEMBL1201862, “PubChem BioAssay data set” (2004).
Activity calls are given as the source filed them.

Assays:
Type in all cases: functional
[1] = target: Induced myeloid leukemia cell differentiation protein Mcl-1 (Homo sapiens, UniProt Q07820)
Ion channel NompC = Ion channel NompC (Danio rerio, UniProt Q7T1G6); test: Dose response cell-based high-throughput screening assay for agonists of the transient receptor potential channel N1 (TRPN1). [Related pubchem assays (depositor defined):AID1424, AID1448]
Chain of Ion channel NompC (Q7T1G6 whole entry): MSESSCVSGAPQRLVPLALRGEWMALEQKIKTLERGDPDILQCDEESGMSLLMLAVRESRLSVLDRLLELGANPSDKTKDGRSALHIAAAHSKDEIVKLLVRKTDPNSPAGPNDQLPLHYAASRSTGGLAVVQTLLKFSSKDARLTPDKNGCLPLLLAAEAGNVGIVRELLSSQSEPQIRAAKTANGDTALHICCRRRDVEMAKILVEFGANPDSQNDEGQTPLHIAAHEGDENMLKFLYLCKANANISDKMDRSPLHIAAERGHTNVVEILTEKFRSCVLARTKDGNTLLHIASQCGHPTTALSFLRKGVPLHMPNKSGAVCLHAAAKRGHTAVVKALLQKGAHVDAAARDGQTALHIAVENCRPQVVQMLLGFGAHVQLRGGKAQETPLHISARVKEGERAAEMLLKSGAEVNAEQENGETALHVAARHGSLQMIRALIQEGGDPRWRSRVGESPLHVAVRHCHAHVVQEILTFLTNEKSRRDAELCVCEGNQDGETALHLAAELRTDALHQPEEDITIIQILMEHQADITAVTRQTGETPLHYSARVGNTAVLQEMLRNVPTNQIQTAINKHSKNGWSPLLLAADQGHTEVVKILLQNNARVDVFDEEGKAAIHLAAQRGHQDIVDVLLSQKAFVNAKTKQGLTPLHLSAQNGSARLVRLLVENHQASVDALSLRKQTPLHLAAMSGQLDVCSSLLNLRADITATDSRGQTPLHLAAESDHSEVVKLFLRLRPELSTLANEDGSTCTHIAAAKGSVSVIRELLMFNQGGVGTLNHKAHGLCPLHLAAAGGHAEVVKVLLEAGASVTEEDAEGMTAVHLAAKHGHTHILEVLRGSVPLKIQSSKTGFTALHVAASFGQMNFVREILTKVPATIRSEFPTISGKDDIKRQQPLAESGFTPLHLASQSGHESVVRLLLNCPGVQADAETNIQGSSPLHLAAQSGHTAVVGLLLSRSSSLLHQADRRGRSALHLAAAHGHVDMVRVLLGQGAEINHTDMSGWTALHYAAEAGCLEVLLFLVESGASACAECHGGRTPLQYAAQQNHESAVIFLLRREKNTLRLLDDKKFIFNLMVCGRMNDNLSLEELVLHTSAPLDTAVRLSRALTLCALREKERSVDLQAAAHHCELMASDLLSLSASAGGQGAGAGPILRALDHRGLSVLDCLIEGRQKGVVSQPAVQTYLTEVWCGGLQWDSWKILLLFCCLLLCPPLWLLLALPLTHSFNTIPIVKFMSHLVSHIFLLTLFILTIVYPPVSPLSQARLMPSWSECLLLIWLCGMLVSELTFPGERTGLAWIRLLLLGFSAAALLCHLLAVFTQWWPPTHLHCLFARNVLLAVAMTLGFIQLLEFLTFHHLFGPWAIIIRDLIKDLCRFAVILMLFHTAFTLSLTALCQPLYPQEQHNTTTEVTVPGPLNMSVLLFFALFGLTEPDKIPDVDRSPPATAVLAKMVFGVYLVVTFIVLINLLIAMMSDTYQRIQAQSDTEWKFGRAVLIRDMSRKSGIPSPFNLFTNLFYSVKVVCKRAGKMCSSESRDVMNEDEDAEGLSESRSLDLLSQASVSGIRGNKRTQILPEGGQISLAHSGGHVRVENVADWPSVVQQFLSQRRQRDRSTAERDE

Mucolipin-3 = target: T1, Mucolipin-3 (Homo sapiens, UniProt Q8TDD5); test: Fluorescence counterscreen assay for […] agonists: dose response cell-based high-throughput screening assay to identify agonists of the transient receptor potential channel ML3 (TRPML3). [Related pubchem assays: 1424, 1448 ]
T1 sequence (Q8TDD5 whole entry): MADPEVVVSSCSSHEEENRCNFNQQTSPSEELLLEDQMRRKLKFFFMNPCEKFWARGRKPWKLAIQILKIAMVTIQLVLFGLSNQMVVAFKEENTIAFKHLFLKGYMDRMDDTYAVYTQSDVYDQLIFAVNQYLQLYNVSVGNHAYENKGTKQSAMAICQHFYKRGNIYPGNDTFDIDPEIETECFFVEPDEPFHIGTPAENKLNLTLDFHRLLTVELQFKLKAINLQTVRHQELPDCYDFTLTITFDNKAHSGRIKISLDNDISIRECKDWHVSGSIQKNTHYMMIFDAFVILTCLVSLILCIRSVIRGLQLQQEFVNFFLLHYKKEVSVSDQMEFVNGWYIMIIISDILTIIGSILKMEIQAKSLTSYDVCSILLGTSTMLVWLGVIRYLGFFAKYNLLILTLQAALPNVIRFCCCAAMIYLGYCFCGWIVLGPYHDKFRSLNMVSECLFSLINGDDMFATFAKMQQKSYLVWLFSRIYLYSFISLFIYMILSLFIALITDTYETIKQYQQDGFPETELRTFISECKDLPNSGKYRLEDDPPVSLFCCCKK

[2] = target: T2, Rac GTPase-activating protein 1 (Homo sapiens, UniProt Q9H0H5); test: MgcRacGAP GTPase-activating activity inhibitors, confirmation, biochemical, ADP Hunter fluorescence, primary and confirmatory (AID 624330)
T2 sequence (Q9H0H5 whole entry): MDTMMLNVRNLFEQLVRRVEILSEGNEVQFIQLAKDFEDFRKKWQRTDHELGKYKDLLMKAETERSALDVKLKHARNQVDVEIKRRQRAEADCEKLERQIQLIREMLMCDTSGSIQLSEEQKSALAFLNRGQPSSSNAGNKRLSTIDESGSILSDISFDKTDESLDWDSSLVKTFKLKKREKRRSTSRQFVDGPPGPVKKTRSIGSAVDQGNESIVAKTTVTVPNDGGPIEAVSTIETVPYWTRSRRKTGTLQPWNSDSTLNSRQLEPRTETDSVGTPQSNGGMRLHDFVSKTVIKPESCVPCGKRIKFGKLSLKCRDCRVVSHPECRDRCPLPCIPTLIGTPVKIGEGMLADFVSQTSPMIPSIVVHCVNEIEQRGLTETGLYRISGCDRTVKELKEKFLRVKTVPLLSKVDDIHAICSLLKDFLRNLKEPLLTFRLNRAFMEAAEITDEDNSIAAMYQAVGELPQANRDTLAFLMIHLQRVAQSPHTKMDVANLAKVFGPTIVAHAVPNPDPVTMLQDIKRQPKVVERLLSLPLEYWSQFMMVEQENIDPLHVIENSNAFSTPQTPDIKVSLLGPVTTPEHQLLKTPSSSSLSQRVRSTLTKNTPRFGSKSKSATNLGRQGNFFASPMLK

Coagulation factor XII = Coagulation factor XII (Homo sapiens, UniProt P00748);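 also: activated factor XIIa alpha cleaving a fluorogenic AMC peptide substrate; inhibitor potency from loss of enzyme activity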
Chain of Coagulation factor XII (P00748 20-372 limits assumed): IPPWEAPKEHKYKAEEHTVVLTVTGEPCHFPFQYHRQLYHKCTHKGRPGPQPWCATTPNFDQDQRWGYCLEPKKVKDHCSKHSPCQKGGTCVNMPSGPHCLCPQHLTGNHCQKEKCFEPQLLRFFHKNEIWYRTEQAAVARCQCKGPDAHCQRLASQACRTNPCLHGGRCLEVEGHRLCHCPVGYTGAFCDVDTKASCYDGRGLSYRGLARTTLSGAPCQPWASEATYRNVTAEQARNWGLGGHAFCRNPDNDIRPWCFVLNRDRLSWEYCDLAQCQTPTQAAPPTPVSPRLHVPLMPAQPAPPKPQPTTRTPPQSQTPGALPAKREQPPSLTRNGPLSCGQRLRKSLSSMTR
Chain of Coagulation factor XII (P00748 373-615 limits assumed): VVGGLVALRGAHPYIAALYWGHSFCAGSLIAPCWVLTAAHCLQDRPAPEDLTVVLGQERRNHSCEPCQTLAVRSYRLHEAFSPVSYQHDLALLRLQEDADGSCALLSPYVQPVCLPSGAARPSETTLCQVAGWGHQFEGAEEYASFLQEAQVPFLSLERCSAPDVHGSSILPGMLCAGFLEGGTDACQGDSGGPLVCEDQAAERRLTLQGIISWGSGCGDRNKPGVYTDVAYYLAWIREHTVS

[3] = target: Melanin-concentrating hormone receptor 1 (Homo sapiens, UniProt Q99705); test: Fluorescence-based counterscreen for antagonists of the G-protein coupled receptor 7 (GPR7): cell-based high throughput dose response assay to identify antagonists of the melanin-concentrating hormone receptor 1 (MCHR1).
Chain of Melanin-concentrating hormone receptor 1 (Q99705 whole entry): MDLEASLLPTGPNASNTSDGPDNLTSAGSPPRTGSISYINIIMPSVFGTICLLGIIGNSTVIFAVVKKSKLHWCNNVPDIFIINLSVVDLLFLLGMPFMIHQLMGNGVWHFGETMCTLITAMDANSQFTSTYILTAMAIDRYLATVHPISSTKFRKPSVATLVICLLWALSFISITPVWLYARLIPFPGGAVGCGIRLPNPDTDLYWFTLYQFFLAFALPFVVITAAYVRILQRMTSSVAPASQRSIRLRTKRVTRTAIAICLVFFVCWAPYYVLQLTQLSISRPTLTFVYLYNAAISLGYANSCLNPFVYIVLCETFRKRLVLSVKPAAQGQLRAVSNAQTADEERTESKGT

[4] = target: T3, Neuropeptides B/W receptor type 1 (Homo sapiens, UniProt P48145); test: Fluorescence-based dose response cell-based high throughput screening assay to identify antagonists of the G-protein coupled receptor 7 (GPR7). [Related pubchem assays: 1952 (Screening assay (GPR7 antagonists).), 1880 (Summary AID.)]
T3 sequence (P48145 whole entry): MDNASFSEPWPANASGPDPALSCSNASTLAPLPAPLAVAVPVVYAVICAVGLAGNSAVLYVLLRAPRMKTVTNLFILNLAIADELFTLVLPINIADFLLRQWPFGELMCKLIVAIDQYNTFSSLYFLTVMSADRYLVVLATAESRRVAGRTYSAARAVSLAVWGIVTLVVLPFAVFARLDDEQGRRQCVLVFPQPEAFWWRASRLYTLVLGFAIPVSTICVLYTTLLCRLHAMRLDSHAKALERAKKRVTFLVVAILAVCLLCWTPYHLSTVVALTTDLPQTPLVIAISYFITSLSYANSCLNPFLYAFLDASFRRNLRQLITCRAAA

Cannabinoid receptor 1 [5] = target: T4, Cannabinoid receptor 1 (Homo sapiens, UniProt P21554); test: SAR analysis of antagonists of the Cannabinoid Receptor 1 using an Image-Based Assay - Set 4. [Related pubchem assays (depositor defined):AID2013, AID2026]
T4 sequence (P21554 whole entry): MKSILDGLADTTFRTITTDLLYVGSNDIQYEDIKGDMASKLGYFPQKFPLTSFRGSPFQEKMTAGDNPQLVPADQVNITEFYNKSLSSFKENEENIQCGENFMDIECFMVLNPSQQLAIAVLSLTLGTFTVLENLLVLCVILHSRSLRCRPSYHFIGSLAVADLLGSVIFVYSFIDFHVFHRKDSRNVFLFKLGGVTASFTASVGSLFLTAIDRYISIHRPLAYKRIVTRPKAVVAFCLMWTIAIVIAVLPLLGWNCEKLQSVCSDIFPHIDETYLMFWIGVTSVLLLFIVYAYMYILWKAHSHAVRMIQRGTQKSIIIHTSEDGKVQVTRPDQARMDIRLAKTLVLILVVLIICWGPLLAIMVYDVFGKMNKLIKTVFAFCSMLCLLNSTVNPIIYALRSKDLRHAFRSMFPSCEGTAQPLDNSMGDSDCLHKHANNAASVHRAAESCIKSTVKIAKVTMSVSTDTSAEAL

Cannabinoid receptor 1 [6] = target: T4, Cannabinoid receptor 1; test: SAR analysis of agonists of the Cannabinoid Receptor 1 using an Image-Based Assay - Set 4. [Related pubchem assays (depositor defined):AID2013, AID2026]
[7] = target: T5, G-protein coupled receptor 35 (Homo sapiens, UniProt Q9HC97); test: SAR analysis of Agonists of the GPR35 Receptor using an Image-Based Assay - Set 4. [Related pubchem assays (depositor defined):AID2013, AID2026]
T5 sequence (Q9HC97 whole entry): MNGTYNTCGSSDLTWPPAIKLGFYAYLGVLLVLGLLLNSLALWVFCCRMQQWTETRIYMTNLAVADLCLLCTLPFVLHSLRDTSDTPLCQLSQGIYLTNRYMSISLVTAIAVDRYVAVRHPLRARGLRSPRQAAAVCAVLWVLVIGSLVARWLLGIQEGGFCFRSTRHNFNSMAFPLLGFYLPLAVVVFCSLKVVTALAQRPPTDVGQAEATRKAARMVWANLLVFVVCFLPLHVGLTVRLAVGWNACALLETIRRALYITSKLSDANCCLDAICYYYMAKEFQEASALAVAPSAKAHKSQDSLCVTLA

[8] = target: G-protein coupled receptor 55 (Homo sapiens, UniProt Q9Y2T6); test: SAR Analysis of Selective Antagonists of GPR55 using an Image-Based Assay - Set 4. [Related pubchem assays (depositor defined):AID2013, AID2026];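 also: antagonism of response to 5 µM lysophosphatidylinositol agonist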
Chain of G-protein coupled receptor 55 (Q9Y2T6 whole entry): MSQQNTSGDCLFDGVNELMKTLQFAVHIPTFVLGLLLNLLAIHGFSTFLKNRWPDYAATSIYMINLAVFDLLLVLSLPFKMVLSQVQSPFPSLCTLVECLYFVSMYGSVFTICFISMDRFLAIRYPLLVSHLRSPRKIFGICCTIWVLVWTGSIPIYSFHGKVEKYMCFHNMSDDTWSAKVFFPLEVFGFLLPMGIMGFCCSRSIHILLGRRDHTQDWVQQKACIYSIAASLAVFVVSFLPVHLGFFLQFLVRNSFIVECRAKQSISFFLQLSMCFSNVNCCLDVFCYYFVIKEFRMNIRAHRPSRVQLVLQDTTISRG

[9] = target: T5, G-protein coupled receptor 35; test: SAR analysis of Antagonists of the GPR35 Receptor using an Image-Based Assay - Set 6. [Related pubchem assays (depositor defined):AID2013, AID2026]
Cannabinoid receptor 2 [10] = target: T6, Cannabinoid receptor 2 (Homo sapiens, UniProt P34972); test: SAR analysis of antagonists of the Cannabinoid Receptor 2 using an Image-Based Assay - Set 3. [Related pubchem assays (depositor defined):AID2013, AID2026]
T6 sequence (P34972 whole entry): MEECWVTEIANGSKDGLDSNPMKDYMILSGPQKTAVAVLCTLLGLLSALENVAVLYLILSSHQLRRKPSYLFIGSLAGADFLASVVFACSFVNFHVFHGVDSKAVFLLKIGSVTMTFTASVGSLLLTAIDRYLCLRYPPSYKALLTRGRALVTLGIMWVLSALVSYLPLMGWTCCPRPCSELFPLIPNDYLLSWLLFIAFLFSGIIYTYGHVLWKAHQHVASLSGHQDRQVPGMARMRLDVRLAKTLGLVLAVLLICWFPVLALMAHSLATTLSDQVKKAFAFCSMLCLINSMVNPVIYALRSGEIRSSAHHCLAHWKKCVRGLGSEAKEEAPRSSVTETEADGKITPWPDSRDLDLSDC

Cannabinoid receptor 2 [11] = target: T6, Cannabinoid receptor 2; test: SAR analysis of agonists of the Cannabinoid Receptor 2 using an Image-Based Assay - Set 3. [Related pubchem assays (depositor defined):AID2013, AID2026]

Chain of Induced myeloid leukemia cell differentiation protein Mcl-1 (Q07820 whole entry): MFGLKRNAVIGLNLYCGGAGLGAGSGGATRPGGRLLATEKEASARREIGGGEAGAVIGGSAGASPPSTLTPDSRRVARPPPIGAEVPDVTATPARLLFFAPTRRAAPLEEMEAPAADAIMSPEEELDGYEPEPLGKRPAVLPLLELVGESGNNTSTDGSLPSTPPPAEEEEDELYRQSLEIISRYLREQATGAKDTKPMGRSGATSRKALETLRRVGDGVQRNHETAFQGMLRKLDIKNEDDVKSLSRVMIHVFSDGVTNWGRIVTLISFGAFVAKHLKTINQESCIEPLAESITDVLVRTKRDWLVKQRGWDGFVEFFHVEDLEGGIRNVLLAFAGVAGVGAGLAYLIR

**Q.** Which IC50 [1] does the source give for `O=C1/C(=C\c2ccc(O)cc2)SC(=S)N1/N=C/c1ccc(O)cc1` here?
**A.** 2.48 µM (active)

**Q.** What about the EC50 (Ion channel NompC) of the same compound?
**A.** 4.9 µM (active)

**Q.** And the EC50 (Mucolipin-3)?
**A.** > 29.9 µM (not active)

**Q.** What about the IC50 [2] of the same compound?
**A.** 105 µM (active)

**Q.** How did the IC50 (Coagulation factor XII) turn out when `CC(=O)c1sc(NC(=O)COc2ccc(Cl)cc2C)nc1C` was run?
**A.** > 50 µM (inactive)

**Q.** How did the IC50 (Coagulation factor XII) turn out when `COc1ccccc1CN1CCNC(=O)C1CC(=O)N(C)Cc1cnccn1` (configuration not stated) was run?
**A.** > 50 µM (inactive)

**Q.** `O=C(CN1C(=O)C2C3CC(C(Br)C3Br)C2C1=O)N1CCN(Cc2ccccc2)CC1` (configuration not stated) was tested. Which IC50 [3] did it give?
**A.** 20.7 µM (not active)

**Q.** What about the IC50 [4] of the same compound?
**A.** 4.18 µM (active)

**Q.** And the EC50 (Ion channel NompC)?
**A.** 16.9 µM (inactive)

**Q.** What about the EC50 (Mucolipin-3) of the same compound?
**A.** > 29.9 µM (not active)

**Q.** How did the IC50 (Cannabinoid receptor 1 [5]) turn out when `Cc1cccc(OCC(=O)N2CCN(c3nc(C)nc4sc5c(c34)CCCC5)CC2)c1` was run?
**A.** 1.66 µM (active)

**Q.** And the EC50 (Cannabinoid receptor 1 [6])?
**A.** > 32 µM (inactive)

**Q.** And the EC50 [7]?
**A.** > 32 µM (inactive)

**Q.** What about the IC50 [8] of the same compound?
**A.** > 32 µM (inactive)

**Q.** What about the IC50 [9] of the same compound?
**A.** > 32 µM (inactive)

**Q.** What about the IC50 (Cannabinoid receptor 2 [10]) of the same compound?
**A.** > 11 µM (inactive)

**Q.** And the EC50 (Cannabinoid receptor 2 [11])?
**A.** > 32 µM (inactive)
